Conditions: Liquid, hot wire

FC(F)(F)CC(F)(F)F [1,1,1,3,3,3-hexafluoropropane]
Conditions	thermal conductivity [W/m/K]
252.57 K, 10000 kPa	0.0912
252.8 K, 5000 kPa	0.0891
252.87 K, 100 kPa	0.0873
252.92 K, 10000 kPa	0.0914
253.16 K, 5000 kPa	0.0887
253.24 K, 20000 kPa	0.0955
253.38 K, 100 kPa	0.0872
253.41 K, 30000 kPa	0.0972
253.47 K, 20000 kPa	0.0949
253.51 K, 20000 kPa	0.0952
253.6 K, 10000 kPa	0.0911
253.65 K, 5000 kPa	0.0891
253.66 K, 100 kPa	0.0872
253.86 K, 30000 kPa	0.0971
255.05 K, 30000 kPa	0.0973
272.91 K, 30000 kPa	0.0926
273.36 K, 10000 kPa	0.0847
273.45 K, 20000 kPa	0.0896
273.49 K, 1000 kPa	0.0814
273.66 K, 10000 kPa	0.0851
273.82 K, 5000 kPa	0.0833
273.85 K, 1000 kPa	0.081
273.86 K, 1000 kPa	0.0812
273.95 K, 30000 kPa	0.0929
274.06 K, 20000 kPa	0.0895
274.16 K, 5000 kPa	0.0832
274.27 K, 10000 kPa	0.0855
274.33 K, 30000 kPa	0.0927
274.57 K, 20000 kPa	0.0892
274.63 K, 5000 kPa	0.0835
293.15 K, 10000 kPa	0.0802
293.22 K, 1000 kPa	0.0762
293.42 K, 30000 kPa	0.0894
293.49 K, 1000 kPa	0.0767
293.61 K, 5000 kPa	0.0782
293.65 K, 10000 kPa	0.0805
293.76 K, 5000 kPa	0.0781
293.76 K, 30000 kPa	0.0891
293.85 K, 10000 kPa	0.0802
293.95 K, 5000 kPa	0.0783
294.47 K, 1000 kPa	0.0764
294.54 K, 30000 kPa	0.0893
312.5 K, 5000 kPa	0.0705
312.59 K, 1000 kPa	0.0682
312.89 K, 5000 kPa	0.0709
313.01 K, 1000 kPa	0.0683
313.28 K, 5000 kPa	0.0706
313.39 K, 1000 kPa	0.068
313.53 K, 20000 kPa	0.0809
313.55 K, 10000 kPa	0.0757
313.85 K, 10000 kPa	0.0761
313.86 K, 30000 kPa	0.0853
314.04 K, 10000 kPa	0.0758
314.06 K, 30000 kPa	0.085
314.2 K, 20000 kPa	0.0809
315.13 K, 20000 kPa	0.0815
315.13 K, 30000 kPa	0.0852
332.48 K, 10000 kPa	0.0699
332.49 K, 5000 kPa	0.0654
332.51 K, 1000 kPa	0.0623
332.72 K, 30000 kPa	0.0805
332.79 K, 20000 kPa	0.0756
332.84 K, 30000 kPa	0.0813
332.85 K, 10000 kPa	0.0695
332.87 K, 1000 kPa	0.0624
332.89 K, 5000 kPa	0.0651
333.2 K, 10000 kPa	0.0695
333.24 K, 1000 kPa	0.0623
333.26 K, 5000 kPa	0.0648
333.48 K, 30000 kPa	0.0802
333.59 K, 20000 kPa	0.0755
334.42 K, 20000 kPa	0.0761
353.02 K, 30000 kPa	0.0749
353.17 K, 10000 kPa	0.0636
353.29 K, 20000 kPa	0.0705
353.35 K, 2000 kPa	0.0565
353.35 K, 5000 kPa	0.0593
353.57 K, 30000 kPa	0.0744
353.68 K, 2000 kPa	0.0564
353.74 K, 5000 kPa	0.0592
353.74 K, 20000 kPa	0.0701
353.82 K, 10000 kPa	0.0635
353.95 K, 30000 kPa	0.0741
354.09 K, 20000 kPa	0.0699
354.12 K, 2000 kPa	0.056
354.24 K, 10000 kPa	0.0633
354.4 K, 5000 kPa	0.0594
373.08 K, 10000 kPa	0.0597
373.15 K, 30000 kPa	0.0726
373.22 K, 5000 kPa	0.0554
373.4 K, 20000 kPa	0.0672
373.46 K, 3000 kPa	0.0525
373.56 K, 10000 kPa	0.0596
373.72 K, 5000 kPa	0.0559
373.8 K, 30000 kPa	0.0727
373.84 K, 3000 kPa	0.0524
373.87 K, 20000 kPa	0.0677
374.1 K, 10000 kPa	0.0601
374.21 K, 30000 kPa	0.0724
374.24 K, 5000 kPa	0.0557
374.26 K, 3000 kPa	0.0526
374.57 K, 20000 kPa	0.0672
